# Experimental data from patent publication US9205064B2, “Methods for the diagnosis of oncological disorders using epimetabolic shifters, multidimensional intracellular molecules, or environmental influencers” (Berg LLC, priority 2009, dated 2015).
# What was measured:
# SCC cells [1] = test: Real-time PCR Heat Shock Protein Array; format: cell-based
# From the text: (§1) The control cells were untreated cells.
# (§2) RNA was quantified by measuring Optical Density at 260 nm.
# Heat Shock Arrays were run for SCC cells and the data of regulated genes is summarized below in Table 13.
# SCC cells [2] = test: Real-time PCR Diabetes Array; format: cell-based; settings: 100 μM Q10, at 6 hours
# From the text: as §1, §2
# [3] = system: PaCa-2 pancreatic cancer cells; test: SeaHorse XF analyzer OCR and ECAR; format: cell-based
# From the text: Environmental influencers (e.g., MIMs or Epi-shifters) may also be identified by changes in cellular energetics. One example of the measurement of cellular energetics are the real-time measures of the consumption of molecular oxygen and/or the change in pH of the media of a cell culture. For example, the ability of a potential epi-shifter to modulate the metabolic state of a cell may be analyzed using, for example, the XF24 Analyzer (Seahorse, Inc.). This technology allows for real time detection of oxygen and pH changes in a monolayer of cells in order to evaluate the bioenergetics of a cell microenvironment. The XF24 Analyzer measures and compares the rates of oxygen consumption (OCR), which is a measure of aerobic metabolism, and extracellular acidification (ECAR), which is a measure of glycolysis, both key indicators of cellular energetics.
# (SeaHorse Biosciences Inc, North Billerica, Mass.).
# In contrast, cancer cells (e.g., MCF-7, PaCa-2) are inherently primed to culture at higher levels of glucose compared to normal cells due to their glycolytic phenotype for maintenance in culture.
# In contrast to normal cells, cancer cells are phenotypically primed to use high glucose for ATP generation (enhanced glycolysis) resulting in higher ECAR (Table 55, ECAR for untreated normoxia 17 mM) at 21 mpH/min. […]
# [4] = system: Pyruvate Dehydrogenase beta (PDH-E1); test: Western blot of pyruvate dehydrogenase beta levels; format: cell-based, human
# Experimental: The samples were processed and run on a 4-12% Bis-Tris Novex NuPAGE gel as described above. The gels were run, transferred and stained essentially as described above.
# The pyruvate kinase blots were stripped by incubating for 30 minutes with methanol, followed by two 10 minute washes with TBS-T, then 30 minutes of incubation with Stripping buffer at 50 deg C., and followed by two washes with 100 ml or more of TBS-T for 30′ each. The 2 blots were scanned in laser scanner to check for complete stripping. After making sure stripping of the antibody and the ECF reagent has worked, the blots were activated with methanol for 5 seconds, washed with water for 5 minutes, and TBST for 15 minutes. The blots are blocked for 1 hour with 5% blocking reagent in TBS-T at room temperature and then washed 3 times with TBS-T (1×-15′; 2×5′ each) and probed with the antibody for Pyruvate Dehydrogenase in 5% BSA (ABNOVA catalog #H00005162-M03) at 1:500 dilutions) overnight at 4 deg C. with shaking. […]
# The levels of LDH and PDH were determined by probing the blots successively with primary antibodies for LDH and PDH, essentially as described above. […]
# [5] = rats, oral; cited from earlier work
compound,measurement,setting,value
"COC1=C(OC)C(=O)C(C/C=C(\C)CC/C=C(\C)CC/C=C(\C)CC/C=C(\C)CC/C=C(\C)CC/C=C(\C)CC/C=C(\C)CC/C=C(\C)CC/C=C(\C)CCC=C(C)C)=C(C)C1=O [Q10, Coenzyme Q10]",DNAJB5 mRNA Regulation,"SCC cells [1]; 100 μM Q10, 6 hours",Down regulated
same,DNAJB13 mRNA Regulation,"SCC cells [1]; 100 μM Q10, 6 hours",Down regulated
same,DNAJC4 mRNA Regulation,"SCC cells [1]; 100 μM Q10, 6 hours",Down regulated
same,DNAJC5B mRNA Regulation,"SCC cells [1]; 100 μM Q10, 6 hours",Down regulated
same,DNAJC12 mRNA Regulation,"SCC cells [1]; 100 μM Q10, 6 hours",Down regulated
same,CCT6B mRNA Regulation,"SCC cells [1]; 100 μM Q10, 24 hours",Down regulated
same,INPPL1 Regulation,SCC cells [2],Down regulated at
same,OCR values,[3]; absence and presence of stressors,consistent reduction
same,ECAR rates,"[3]; normoxia, high glucose",significant decrease
same,expression of PDH-E1,[4]; cancer cells,progressive increase
same,expression of PDH-E1,[4]; normal cells,minimal changes
same,fraction of orally-administered CoQ10 absorbed,[5],2-3%
